Read-outs that look alike come from different tables or passages of the source.
How the values were obtained:
CYP3A [1] = test system: CYP3A; set-up: method as in PMID 19701237; conditions: after clarithromycin 250 mg twice daily for five days vs baseline; p = 0.04; cited from earlier work
CYP3A [2] = conditions: for Inhibition ratio of urinary 1β-OH-DCA excretion: after/before inhibition by fluvoxamine + voriconazole; for Urinary 1β-OH-DCA excretion: geometric mean (95% CI)
CYP3A [3] = test: Oral midazolam pharmacokinetics (CYP3A phenotyping) in healthy volunteers at baseline, after inhibition and after induction; format: in vivo, human; conditions: MDZ 1 mg oral; for Cmax: human, plasma, po
Method: Healthy volunteers were administered, as part of the Geneva cocktail, MDZ 1 mg for CYP3A phenotyping at baseline (control session). During the inhibition session, participants received MDZ 1 mg after fluvoxamine intake (50 mg, two doses 12 h and 2 h before MDZ administration) and voriconazole intake (400 mg, one dose 2 h before MDZ administration). MDZ 1 mg was also received after a pretreatment with the inducer rifampicin (600 mg, one tablet every evening for seven days until the evening before administration of MDZ) (induction session). Urine samples were collected over 8 h after MDZ administration at each session. Venous blood samples (3 mL) were collected before (time 0) as well as 0.5, 1, 2, 3, 4, 6, and 8 h after probe drug administration. Breakfast and lunch were served approximately 1 h and 4 h, respectively, after the blood sampling. The trial is registered at http://www.clinicaltrials.gov (NCT01731067).
Analyses of MDZ and OH-MDZ in plasma were performed using a single reverse-phase high-performance liquid chromatography coupled with tandem mass spectrometry (LC-MS/MS) method as described in the study of Bosilkosvka et al..
The pharmacokinetic parameters of MDZ were obtained by standard noncompartmental methods using WinNonlin version 6.2.1 (Pharsight, Mountain View, CA, USA).
Inhibition ratios were calculated as follows:(1) Inhibition ratio = Metricafter inhibition/Metricbefore inhibition.
Similarly, induction ratios were calculated as follows:(3) Induction ratio = Metricafter induction/Metricbefore induction.

[4] = induction session (rifampicin 600 mg, 7 days)
[5] = inhibition session (fluvoxamine + voriconazole)

C[C@]12CCC(=O)C=C1CC[C@@H]1[C@@H]2[C@@H](O)C[C@@]2(C)[C@H]1CC[C@]2(O)C(=O)CO [cortisol]
Increase in area under the concentration-time curve of plasma endogenous cortisol (CYP3A [1]): 19%

C[C@H](CCC(=O)O)[C@H]1CC[C@H]2[C@@H]3CC[C@@H]4C[C@H](O)C[C@@H](O)[C@]4(C)[C@H]3C[C@H](O)[C@]12C [1β-OH-DCA, 1β-hydroxy-deoxycholic acid]
Inhibition ratio of urinary 1β-OH-DCA excretion (CYP3A [2]): 0.62 | Inhibition ratio of urinary 1β-OH-DCA excretion (CYP3A [2]; listed as 1β-OH -DCA): 0.62 (0.26–1.5) | Urinary 1β-OH-DCA excretion (CYP3A [2]; baseline): 15.5 (5.8–41.3) µg/8 h | Urinary 1β-OH-DCA excretion (CYP3A [2]; [4]): 61.8 (30.9–123.3) µg/8 h | Urinary 1β-OH-DCA excretion (CYP3A [2]; [5]): 9.6 (4.1–22.5) µg/8 h

Cc1ncc2n1-c1ccc(Cl)cc1C(c1ccccc1F)=NC2 [MDZ, midazolam]
Oral MDZ CL (CYP3A [3]; baseline, geometric mean (95% CI)): 143.0 (107.1–191.0) L/h | Oral MDZ CL (CYP3A [3]; [4]): 3296 (2351–4622) L/h | Oral MDZ CL (CYP3A [3]; [5]): 24.0 (19.7–29.3) L/h | Cmax (CYP3A [3]; 1 mg, baseline): 3.1 ng/mL | Cmax (CYP3A [3]; [4]): 0.15 ng/mL | Cmax (CYP3A [3]; [5]): 11.7 ng/mL

Source: article PMC7923269 (Journal of Personalized Medicine, 2021)
